Converted amounts (≈) assume the structure as drawn.
Assays:
SW-620 [1] = assay: Inhibition of phosphorylation of histone H3 in human SW620 cells; type: functional, cell-based
Aurora kinase A = target: T1, Aurora kinase A (Homo sapiens, UniProt O14965)
T1 sequence (O14965 whole entry): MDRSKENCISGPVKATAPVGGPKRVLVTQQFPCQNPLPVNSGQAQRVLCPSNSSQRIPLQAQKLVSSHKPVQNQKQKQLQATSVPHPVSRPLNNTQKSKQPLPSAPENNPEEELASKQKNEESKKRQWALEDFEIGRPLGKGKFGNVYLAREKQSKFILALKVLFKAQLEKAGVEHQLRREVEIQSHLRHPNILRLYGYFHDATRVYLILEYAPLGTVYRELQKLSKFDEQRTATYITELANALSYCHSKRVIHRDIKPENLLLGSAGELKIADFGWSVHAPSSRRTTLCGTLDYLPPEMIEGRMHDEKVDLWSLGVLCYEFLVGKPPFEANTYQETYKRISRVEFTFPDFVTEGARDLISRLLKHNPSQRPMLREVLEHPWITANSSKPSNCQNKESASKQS
Description: Inhibition of Aurora A kinase activity

[2] = Inhibition of Aurora B-INCENP complex activity
[3] = target: Proto-oncogene tyrosine-protein kinase Src (Homo sapiens, UniProt P12931); assay: Inhibitory activity against SRC
[4] = Free drug level in rat serum albumin; type: ADME, organism-based
[5] = Clearance in rat; type: ADME, organism-based; conditions: in vivo
[6] = target: Fibroblast growth factor receptor (Homo sapiens, UniProt P22607+P11362+P22455+P21802); assay: Inhibitory activity against FGFR; type: protein assay
[7] = target: Insulin-like growth factor 1 receptor (Homo sapiens, UniProt P08069); assay: Inhibitory activity against IGFR
[8] = target: Vascular endothelial growth factor receptor 2 (Homo sapiens, UniProt P35968); assay: Inhibitory activity against KDR
[9] = target: T2, Tyrosine-protein kinase JAK3 (Homo sapiens, UniProt P52333); assay: Inhibitory activity against JAK3
T2 sequence (P52333 whole entry): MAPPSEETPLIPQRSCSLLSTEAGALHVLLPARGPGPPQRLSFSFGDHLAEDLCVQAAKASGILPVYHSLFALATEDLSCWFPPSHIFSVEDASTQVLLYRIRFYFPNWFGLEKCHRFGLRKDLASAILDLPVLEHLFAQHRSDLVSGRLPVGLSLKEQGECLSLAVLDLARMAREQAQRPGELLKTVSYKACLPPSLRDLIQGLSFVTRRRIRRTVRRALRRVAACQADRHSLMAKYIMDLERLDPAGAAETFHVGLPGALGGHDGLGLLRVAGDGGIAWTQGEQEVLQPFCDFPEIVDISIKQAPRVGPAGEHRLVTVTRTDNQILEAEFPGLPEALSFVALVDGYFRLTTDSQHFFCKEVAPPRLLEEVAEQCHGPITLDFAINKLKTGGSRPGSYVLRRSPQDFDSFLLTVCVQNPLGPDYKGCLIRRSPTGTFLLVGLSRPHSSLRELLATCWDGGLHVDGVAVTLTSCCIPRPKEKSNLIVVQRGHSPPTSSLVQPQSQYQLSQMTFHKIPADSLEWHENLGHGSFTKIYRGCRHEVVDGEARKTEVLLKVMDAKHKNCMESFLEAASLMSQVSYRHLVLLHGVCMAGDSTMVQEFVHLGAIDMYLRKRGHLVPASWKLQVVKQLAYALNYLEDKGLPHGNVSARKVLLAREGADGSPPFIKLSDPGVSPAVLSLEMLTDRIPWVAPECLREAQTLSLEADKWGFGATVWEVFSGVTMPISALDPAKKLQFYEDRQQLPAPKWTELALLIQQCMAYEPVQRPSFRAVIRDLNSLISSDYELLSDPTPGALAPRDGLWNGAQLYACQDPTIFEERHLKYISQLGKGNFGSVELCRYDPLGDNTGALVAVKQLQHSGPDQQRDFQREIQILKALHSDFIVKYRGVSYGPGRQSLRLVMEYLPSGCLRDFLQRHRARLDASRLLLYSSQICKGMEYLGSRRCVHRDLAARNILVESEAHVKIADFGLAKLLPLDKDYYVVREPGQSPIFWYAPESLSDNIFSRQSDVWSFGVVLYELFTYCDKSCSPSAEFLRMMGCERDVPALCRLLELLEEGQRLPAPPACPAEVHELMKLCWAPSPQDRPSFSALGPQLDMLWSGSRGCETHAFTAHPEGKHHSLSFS

[10] = target: Mitogen-activated protein kinase 14 (Homo sapiens, UniProt Q16539); assay: Inhibitory activity against p38-alpha MAPK
[11] = Solubility in phosphate buffer at pH 7.4, 25 degC; type: physicochemical
[12] = target: cAMP-dependent protein kinase (PKA) (Homo sapiens, UniProt P22694+P17612+P22612); assay: Inhibitory activity against PKA; type: protein assay
[13] = target: Tyrosine-protein kinase CSK (Homo sapiens, UniProt P41240); assay: Inhibitory activity against CSK
[14] = Half life in rat; type: ADME, organism-based; conditions: in vivo
[15] = Volume of distribution in rat; type: ADME, organism-based; conditions: in vivo, read-out: Vdss
[16] = target: Mitogen-activated protein kinase 8 (Homo sapiens, UniProt P45983); assay: Inhibitory activity against JNK1alpha
[17] = target: Cyclin-dependent kinase 2 (Homo sapiens, UniProt P24941); assay: Inhibitory activity against CDK2
Focal adhesion kinase 1 = Focal adhesion kinase 1 (Homo sapiens, UniProt Q05397); assay: Inhibitory activity against FAK
SW-620 [18] = assay: Antiproliferative activity against human colorectal carcinoma SW620 cells
[19] = Distribution coefficient of the compound, log D at pH 7.4; type: physicochemical; conditions: octanol/water
Mus musculus = species on record: Mus musculus; assay: Conversion to parent, N-(3-fluorophenyl)-2-{2-[(7-{3 -[4-(hydroxymethyl)piperidin-1 -yl]propoxy}-6-methoxyquinazol in-4-yl)amino]-1,3-thiazol-5-y l}acetamide in mouse plasma; type: ADME, organism-based; conditions: in vivo
[20] = Solubility in Tris buffer at pH 9.0, 25 degC; type: physicochemical
Aurora kinase B = Aurora kinase B (Homo sapiens, UniProt Q96GD4); assay: Inhibition of Aurora-B immunoprecipitated from mitotic cells; type: functional
Sequence of Aurora kinase B (Q96GD4 whole entry): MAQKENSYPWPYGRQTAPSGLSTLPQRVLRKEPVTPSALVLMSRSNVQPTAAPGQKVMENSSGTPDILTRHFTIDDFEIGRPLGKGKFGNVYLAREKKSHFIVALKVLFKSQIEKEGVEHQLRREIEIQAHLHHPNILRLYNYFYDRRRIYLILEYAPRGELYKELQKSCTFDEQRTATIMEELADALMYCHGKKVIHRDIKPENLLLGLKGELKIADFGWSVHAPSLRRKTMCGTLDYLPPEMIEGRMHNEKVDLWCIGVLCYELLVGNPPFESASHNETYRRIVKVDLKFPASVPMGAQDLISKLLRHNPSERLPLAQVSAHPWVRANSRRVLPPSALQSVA

Sequence of Mitogen-activated protein kinase 14 (Q16539 whole entry): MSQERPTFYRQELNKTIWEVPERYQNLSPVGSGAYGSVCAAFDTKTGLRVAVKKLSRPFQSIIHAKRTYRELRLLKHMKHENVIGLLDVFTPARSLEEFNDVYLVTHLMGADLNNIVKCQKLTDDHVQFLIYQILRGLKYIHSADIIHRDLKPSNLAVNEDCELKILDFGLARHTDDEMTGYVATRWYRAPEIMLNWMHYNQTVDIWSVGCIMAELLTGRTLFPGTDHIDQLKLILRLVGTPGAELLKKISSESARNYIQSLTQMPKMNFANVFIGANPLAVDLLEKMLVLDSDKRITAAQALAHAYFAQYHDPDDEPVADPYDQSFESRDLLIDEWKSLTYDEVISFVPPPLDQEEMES
Sequence of Insulin-like growth factor 1 receptor (P08069 31-736 limits assumed): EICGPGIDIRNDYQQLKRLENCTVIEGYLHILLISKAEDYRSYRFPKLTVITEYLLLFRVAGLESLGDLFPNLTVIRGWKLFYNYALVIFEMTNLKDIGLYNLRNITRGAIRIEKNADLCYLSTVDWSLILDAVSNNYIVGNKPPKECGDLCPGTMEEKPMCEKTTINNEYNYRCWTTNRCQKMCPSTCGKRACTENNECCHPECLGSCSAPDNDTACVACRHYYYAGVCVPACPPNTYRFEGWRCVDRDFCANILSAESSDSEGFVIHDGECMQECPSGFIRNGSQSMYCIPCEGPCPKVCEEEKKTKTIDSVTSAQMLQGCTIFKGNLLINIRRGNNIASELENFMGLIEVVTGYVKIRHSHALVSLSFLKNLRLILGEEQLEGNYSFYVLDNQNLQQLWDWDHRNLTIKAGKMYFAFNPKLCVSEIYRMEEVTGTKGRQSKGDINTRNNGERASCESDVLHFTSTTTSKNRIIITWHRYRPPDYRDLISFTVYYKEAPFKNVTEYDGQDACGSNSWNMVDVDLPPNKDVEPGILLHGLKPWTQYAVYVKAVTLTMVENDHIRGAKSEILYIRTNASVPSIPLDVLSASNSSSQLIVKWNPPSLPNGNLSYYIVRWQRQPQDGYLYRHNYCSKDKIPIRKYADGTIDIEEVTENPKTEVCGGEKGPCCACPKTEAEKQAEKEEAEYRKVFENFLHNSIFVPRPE
Sequence of Insulin-like growth factor 1 receptor (P08069 741-1367 limits assumed): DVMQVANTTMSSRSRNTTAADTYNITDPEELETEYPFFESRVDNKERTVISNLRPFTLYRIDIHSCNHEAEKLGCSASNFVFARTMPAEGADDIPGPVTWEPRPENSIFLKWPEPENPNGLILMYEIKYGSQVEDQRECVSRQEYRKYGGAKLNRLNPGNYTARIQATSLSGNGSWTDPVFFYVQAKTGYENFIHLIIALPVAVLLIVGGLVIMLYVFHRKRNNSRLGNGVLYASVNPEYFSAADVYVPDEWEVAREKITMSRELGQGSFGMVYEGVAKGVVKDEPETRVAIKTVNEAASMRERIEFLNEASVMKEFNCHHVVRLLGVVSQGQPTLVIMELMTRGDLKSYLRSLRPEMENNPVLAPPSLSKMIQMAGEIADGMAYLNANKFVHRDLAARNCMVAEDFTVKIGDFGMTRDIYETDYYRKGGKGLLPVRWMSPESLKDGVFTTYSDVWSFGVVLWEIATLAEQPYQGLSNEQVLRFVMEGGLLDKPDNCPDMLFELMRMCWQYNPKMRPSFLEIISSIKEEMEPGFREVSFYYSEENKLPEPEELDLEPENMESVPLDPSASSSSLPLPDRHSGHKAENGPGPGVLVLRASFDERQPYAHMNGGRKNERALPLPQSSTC
Sequence of Focal adhesion kinase 1 (Q05397 whole entry): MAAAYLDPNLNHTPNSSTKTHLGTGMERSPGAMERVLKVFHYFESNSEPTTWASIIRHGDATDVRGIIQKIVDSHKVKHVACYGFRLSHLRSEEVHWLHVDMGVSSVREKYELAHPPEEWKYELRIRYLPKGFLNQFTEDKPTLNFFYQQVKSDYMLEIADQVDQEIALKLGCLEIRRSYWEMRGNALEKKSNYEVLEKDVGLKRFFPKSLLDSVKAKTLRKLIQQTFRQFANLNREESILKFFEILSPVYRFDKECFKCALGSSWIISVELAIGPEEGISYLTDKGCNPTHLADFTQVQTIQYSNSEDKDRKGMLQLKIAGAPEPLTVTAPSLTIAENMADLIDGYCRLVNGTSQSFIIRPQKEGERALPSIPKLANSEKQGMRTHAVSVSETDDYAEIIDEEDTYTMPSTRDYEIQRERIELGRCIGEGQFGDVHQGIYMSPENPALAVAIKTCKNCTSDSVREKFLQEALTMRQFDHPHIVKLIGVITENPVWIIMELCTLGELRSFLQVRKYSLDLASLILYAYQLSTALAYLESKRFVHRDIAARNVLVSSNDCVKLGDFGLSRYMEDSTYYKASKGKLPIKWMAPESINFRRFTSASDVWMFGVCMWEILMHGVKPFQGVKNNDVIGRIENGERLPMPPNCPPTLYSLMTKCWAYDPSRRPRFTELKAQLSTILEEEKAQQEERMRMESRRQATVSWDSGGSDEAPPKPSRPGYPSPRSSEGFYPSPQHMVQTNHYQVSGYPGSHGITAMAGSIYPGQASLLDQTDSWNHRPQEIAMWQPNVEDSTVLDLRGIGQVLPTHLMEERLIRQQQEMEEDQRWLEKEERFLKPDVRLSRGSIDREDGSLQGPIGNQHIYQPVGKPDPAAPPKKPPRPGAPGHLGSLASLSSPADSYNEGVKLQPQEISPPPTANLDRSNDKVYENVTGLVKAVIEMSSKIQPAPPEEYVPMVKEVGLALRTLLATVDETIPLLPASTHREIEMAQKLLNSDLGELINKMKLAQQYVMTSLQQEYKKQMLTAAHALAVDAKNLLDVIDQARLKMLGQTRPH
Sequence of Proto-oncogene tyrosine-protein kinase Src (P12931 2-536 limits assumed): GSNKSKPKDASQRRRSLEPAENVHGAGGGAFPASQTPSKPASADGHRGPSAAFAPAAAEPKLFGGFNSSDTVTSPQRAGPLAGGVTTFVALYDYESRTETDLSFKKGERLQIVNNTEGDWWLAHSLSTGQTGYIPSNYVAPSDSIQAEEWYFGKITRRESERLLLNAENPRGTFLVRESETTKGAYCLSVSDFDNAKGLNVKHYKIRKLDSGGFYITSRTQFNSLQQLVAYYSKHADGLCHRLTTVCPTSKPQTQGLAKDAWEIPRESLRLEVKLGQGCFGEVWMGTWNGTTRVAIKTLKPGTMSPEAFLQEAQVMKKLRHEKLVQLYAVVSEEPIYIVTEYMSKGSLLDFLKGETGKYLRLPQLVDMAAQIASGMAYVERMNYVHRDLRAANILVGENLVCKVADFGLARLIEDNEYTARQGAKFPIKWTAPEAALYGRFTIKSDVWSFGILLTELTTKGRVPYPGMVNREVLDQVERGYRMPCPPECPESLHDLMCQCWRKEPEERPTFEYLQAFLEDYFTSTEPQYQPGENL
Sequence of Mitogen-activated protein kinase 8 (P45983 whole entry): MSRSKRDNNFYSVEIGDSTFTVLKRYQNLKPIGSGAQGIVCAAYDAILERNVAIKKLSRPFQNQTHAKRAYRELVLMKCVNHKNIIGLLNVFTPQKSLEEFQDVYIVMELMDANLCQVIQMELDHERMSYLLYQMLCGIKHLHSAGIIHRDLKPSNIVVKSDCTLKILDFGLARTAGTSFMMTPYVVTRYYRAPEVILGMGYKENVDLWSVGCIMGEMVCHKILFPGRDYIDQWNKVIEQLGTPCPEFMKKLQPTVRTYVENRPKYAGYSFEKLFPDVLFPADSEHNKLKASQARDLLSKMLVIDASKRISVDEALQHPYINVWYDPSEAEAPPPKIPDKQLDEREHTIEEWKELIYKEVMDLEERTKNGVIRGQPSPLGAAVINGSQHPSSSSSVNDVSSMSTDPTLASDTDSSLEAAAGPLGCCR

IC50 (SW-620 [1]) [nM] | IC50 (Aurora kinase A) [nM] | IC50 [2] [nM] | SMILES | also measured
1 | 2 | – | COc1cc2c(Nc3ncc(CC(=O)Nc4cccc(F)c4F)s3)ncnc2cc1OCCCN1CCC[C@H]1CO | –
2800 | 111 | 136 | COc1cc2c(Nc3ncc(CNC(=O)c4cccc(F)c4)s3)ncnc2cc1OCCCN1CCC(CO)CC1 | –
10 | 1 | 8 | COCCOc1cc2ncnc(Nc3ncc(CC(=O)Nc4cccc(F)c4)s3)c2cc1OC | –
5 | – | 7 | COc1cc2c(Nc3ncc(CC(=O)Nc4cccc(F)c4)s3)ncnc2cc1OCCCN1CCC(CO)CC1 | IC50 [3]: 3000 nM; fraction unbound [4]: 0.024; clearance [5]: 16.6 mL/min/kg; IC50 [6]: 8000 nM; IC50 [7]: 13000 nM; IC50 [8]: 1000 nM; IC50 [9]: 25000 nM; IC50 [10]: > 100000 nM; solubility [11]: 35 µg/mL (≈ 0.0603 mM); IC50 [12]: > 100000 nM; IC50 [13]: 21000 nM; half-life [14]: 5 h; Vd [15]: 1.8 L/kg; IC50 [16]: > 100000 nM; IC50 [17]: 62000 nM; IC50 (Focal adhesion kinase 1): 4000 nM; IC50 (SW-620 [18]): 2 nM; logD [19]: 3.2
1100 | 43 | 133 | COc1cc2c(Nc3ncc(C)s3)ncnc2cc1OCCCN1CCOCC1 | –
1900 | 6 | 63 | CCCCc1cnc(Nc2ncnc3cc(OCCCN4CCOCC4)c(OC)cc23)s1 | –
400 | < 1 | < 1 | COc1cc2c(Nc3ncc(SCc4cccc(F)c4)s3)ncnc2cc1OCCCN1CCC(CO)CC1 | –
2300 | 55 | 286 | CCN(C(=O)Cc1cnc(Nc2ncnc3cc(OCCCN4CCOCC4)c(OC)cc23)s1)c1ccccc1 | –
< 1 | < 1 | < 1 | CCN(CCO)CCCOc1cc2ncnc(Nc3ncc(CC(=O)Nc4cccc(F)c4)s3)c2cc1OC | –
< 1 | < 1 | < 1 | COc1cc2c(Nc3ncc(CC(=O)Nc4cccc(F)c4)s3)ncnc2cc1OCCCN1CCOCC1 | –
> 10000 | > 1000 | > 1000 | COc1cc2c(Nc3nc(C(=O)Nc4ccc(F)cc4)c[nH]3)ncnc2cc1OCCCN1CCOCC1 | –
200 | – | < 1 | COc1cc2c(Nc3ncc(Oc4cccc(F)c4)s3)ncnc2cc1OCCCN1CCC(CO)CC1 | –
1000 | 472 | 341 | COc1cc2c(Nc3ncc(CC(=O)Nc4cccc(F)c4)o3)ncnc2cc1OCCCN1CCOCC1 | –
600 | 1 | 49 | COc1cc2c(Nc3ncc(C(=O)Nc4ccc(F)cc4)s3)ncnc2cc1OCCCN1CCOCC1 | –
19 | < 1 | < 1 | COc1cc2c(Nc3ncc(CC(=O)Nc4cccc(F)c4)s3)ncnc2cc1OCCN1CCC(CCO)CC1 | –
– | – | – | COc1cc2c(Nc3ncc(CC(=O)Nc4cccc(F)c4)s3)ncnc2cc1OCCCN1CCC(COP(=O)(O)O)CC1 | T1/2 (Mus musculus): 0.7 h; solubility [20]: 10000 µg/mL (≈ 15.1 mM)
> 10000 | 452 | 282 | COc1cc2c(Nc3ncc(CC(=O)Nc4ccccc4C(N)=O)s3)ncnc2cc1OCCCN1CCC[C@H]1CO | –
600 | 483 | 48 | COc1cc2c(Nc3ncc(CC(=O)Nc4cccc(N(C)C)c4)s3)ncnc2cc1OCCCN1CCC[C@H]1CO | –
80 | – | 1 | COc1cc2c(Nc3ncc(CC(=O)Nc4cccc(F)c4)s3)ncnc2cc1OCCCNCCO | –
20 | < 1 | < 1 | C#CCN(CCO)CCCOc1cc2ncnc(Nc3ncc(CC(=O)Nc4cccc(F)c4)s3)c2cc1OC | –
4 | < 1 | < 1 | COc1cc2c(Nc3ncc(CC(=O)Nc4cccc(F)c4)s3)ncnc2cc1OCCCN1CCC[C@H]1CO | –
2 | < 1 | < 1 | COc1cc2c(Nc3ncc(CC(=O)Nc4cccc(F)c4)s3)ncnc2cc1OCCCN1CCN(C)CC1 | –
800 | 12 | 28 | COc1cc2c(Nc3ncc(CNS(=O)(=O)c4cccc(F)c4)s3)ncnc2cc1OCCCN1CCC(CO)CC1 | –
200 | 578 | 12 | COc1cc2c(Nc3nc(CC(=O)Nc4cccc(F)c4)cs3)ncnc2cc1OCCCN1CCOCC1 | –
1000 | 106 | 5 | COc1cccc(NC(=O)Cc2cnc(Nc3ncnc4cc(OCCCN5CCC[C@H]5CO)c(OC)cc34)s2)c1 | –
400 | 158 | 5 | COc1cc2c(Nc3ncc(CC(=O)NCCC(C)C)s3)ncnc2cc1OCCCN1CCOCC1 | –
– | – | – | CCS(=O)(=O)Nc1ccc2c(c1)/C(=C(/Nc1ccc(CN3CCCCC3)cc1)c1ccccc1)C(=O)N2 [HESPERADIN] | IC50 (Aurora kinase B): 250 nM
